Laboratory results published in patent US8410118B2, “Inhibitors of fatty acid uptake and methods of use” (NUtech Ventures, priority 2009, dated 2013).
Where two headings read alike, the source gives them in different places.

Legend:
Caco-2 cells [1] = test: C1-BODIPY-C12 fatty acid uptake (transport) inhibition in Caco-2 cells; format: cell-based, human; conditions: for % Transport Standard Assay: compound at f.c. 40 μM, Caco-2 cells, control = 100, mean ± SD of 3-5 experiments
Excerpt: The Caco-2 cell line is derived from a human adenocarcinoma and is able to undergo differentiation into polarized epithelial cells that show a brush border phenotype and form well-developed and functional tight junction complexes [Fogh et al., J. Natl. Cancer Inst., 1977, 59:221-6; Grasset et al., Am. J. Physiol., 1984, 247:C260-7]. This cell line is used as an in vitro model to predict human intestinal absorption and secretion [Hilgers et al., Pharm. Res., 1990, 7:902-10]. Caco-2 cells were maintained in Earl's minimal essential medium (MEM) with 20% FBS in a 95% air 5% CO2 atmosphere at 37° C., as previously described [Sandoval et al., Arch. Biochem. Biophys., 2008, 477:363-71]. For growth and differentiation, the BD Biosciences Intestinal Epithelium Differentiation Media Pack was used. Cells were plated in basal seeding medium at a density of 2.5×10^5 cells/cm^2 on a collagen-coated black-clear 96-well plate (BD Biosciences). After 72 h in culture, the basal seeding medium was removed and Entero-STIM medium was added to each well. Both media contained mito-serum extender. After another 24 h, cells were serum-starved for one hour in MEM without phenol red prior to performing the C1-BODIPY-C12 uptake assay. HepG2 cells (ATCC, HB-8065) were cultured according to the ATCC protocol. The cells were seeded in 96-well collagen coated plates at a seeding density of 2.5×10^5 cells/cm^2. […] For differentiation into adipocytes, 3T3-L1 cells were treated with methylisobutylxanthine (0.5 mM), dexamethasone (1.0 μM), and insulin (1.75 μM) in DMEM and 10% FBS for 48 hours as described by Student et al. [Student et al., J. Biol. Chem., 1980, 255:4745-50]. After 48 hour incubation with differentiation medium, cells were treated with DMEM and 10% FBS supplemented with insulin (1.75 μM) for 48 hours. Cells were subsequently maintained in DMEM and 10% FBS for an additional 3-6 days until fully differentiated. The number of cells per well in screening trials were determined using the FluoReporter® Blue Fluorometric DNA Quantitation Kit from Invitrogen.
Caco-2 cells were plated in basal seeding medium at a density of 2.5×10^5 cells/cm^2 in collagen-coated 96-well plates, and differentiated as detailed above. HepG2 cells were cultured in EMEM. Differentiated 3T3-L1 adipocytes were maintained in modified DMEM and 10% FBS. After another 24 h, cells were serum-starved for 1 h in MEM without phenol red prior to performing the C1-BODIPY-C12 transport assay [Sandoval et al., Arch. Biochem. Biophys., 2008, 477:363-71; Arias-Barrau et al., Methods Mol. Biol., 2009, 580:233-49]. In a standard reaction, serum-free MEM was removed from the wells and 50 μL of the test compound in MEM (MEM alone for controls) were added to each well and incubation was continued for 1 h. Then 50 μL of C1-BODIPY-C12 mixture (final concentrations 5 μM C1-BODIPY-C12; 5 μM FAF BSA; 1.97 mM trypan blue) was added to each well, and uptake was allowed to take place for 15 min. Cell-associated fluorescence was measured as detailed above. […] Ligand competition curves were fit by nonlinear least-squares regression using one-site competition and dose-response models and Prism software (GraphPad software, Inc., San Diego, Calif.) in order to determine the compound concentration that reduced C1-BODIPY-C12 fluorescence readout by 50% (IC50). Ki values were calculated from the IC50 using the equation of Cheng and Prusoff as detailed in Li et al. [J. Lipid Res., 2008, 49:230-44] and KT values published by Sandoval et al. [Sandoval et al., Arch. Biochem. Biophys., 2008, 477:363-71].

HepG2 cells = test: C1-BODIPY-C12 fatty acid uptake inhibition in HepG2 cells; format: cell-based
Description: (§1) This cell line is used as an in vitro model to predict human intestinal absorption and secretion [Hilgers et al., Pharm. […] For growth and differentiation, the BD Biosciences Intestinal Epithelium Differentiation Media Pack was used. Cells were plated in basal seeding medium at a density of 2.5×10^5 cells/cm^2 on a collagen-coated black-clear 96-well plate (BD Biosciences). After 72 h in culture, the basal seeding medium was removed and Entero-STIM medium was added to each well. Both media contained mito-serum extender. After another 24 h, cells were serum-starved for one hour in MEM without phenol red prior to performing the C1-BODIPY-C12 uptake assay. […] The cells were seeded in 96-well collagen coated plates at a seeding density of 2.5×10^5 cells/cm^2. […] Cells were subsequently maintained in DMEM and 10% FBS for an additional 3-6 days until fully differentiated. The number of cells per well in screening trials were determined using the FluoReporter® Blue Fluorometric DNA Quantitation Kit from Invitrogen.
(§2) Caco-2 cells were plated in basal seeding medium at a density of 2.5×10^5 cells/cm^2 in collagen-coated 96-well plates, and differentiated as detailed above. HepG2 cells were cultured in EMEM. Differentiated 3T3-L1 adipocytes were maintained in modified DMEM and 10% FBS. After another 24 h, cells were serum-starved for 1 h in MEM without phenol red prior to performing the C1-BODIPY-C12 transport assay [Sandoval et al., Arch. […] In a standard reaction, serum-free MEM was removed from the wells and 50 μL of the test compound in MEM (MEM alone for controls) were added to each well and incubation was continued for 1 h. […] Cell-associated fluorescence was measured as detailed above.

3T3-L1 adipocytes = test: C1-BODIPY-C12 fatty acid uptake inhibition in 3T3-L1 adipocytes; format: cell-based
Description: as §1, §2

Caco-2 cells [2] = test: Glucose analogue 2-NBDG uptake into Caco-2 cells; format: cell-based, human; conditions: differentiated Caco-2 cells
Description: To assess the impact of selected compounds upon glucose transport, Caco-2 cells were seeded and differentiated in 96-well collagen coated plates as detailed above and incubated for 1 h with compound diluted in PBS. […] Cells were incubated 30 min at 37° C., 5% CO2 to allow uptake. The medium was removed by aspiration and cells were rinsed once with 100 μL, of PBS.

[3] = tested on: long chain acyl-CoA synthetase (Acsl); test: Oleoyl-CoA synthetase (Acsl) activity in Caco-2 cell extracts after compound treatment; format: biochemical, human; conditions: Caco-2 cells pretreated 1 h; for oleoyl CoA synthetase activity: activity in total cell extracts
Description: Caco-2 cells were grown and differentiated in 60 mm collagen coated dishes (at a seeding density 2.5×10^5 cells/cm^2). Following growth and differentiation as detailed above, cells were serum starved for 1 h in MEM and then were treated for 1 h with selected compounds at specified final concentrations. The media was subsequently removed by aspiration and cells washed once with 5 mL PBS, trypsinized using standard procedures and collected by centrifugation. The cell pellet was resuspended in 1 mL STE lysis buffer (10 mM Tris-HCl (pH 8.0); 0.1M NaCl; 1 mM EDTA) and sonicated on ice for 2 min using 3 sec on/off pulses. […] In parallel experiments, untreated cells were used to prepare the cell extract for Acsl activity measurements where the compound of interest was added directly to the reaction mixture.
Acyl-CoA formed during the reaction remained in the aqueous fraction and was quantified by scintillation counting. Data were expressed as nmol oleoyl CoA formed/min/mg protein.

Caco-2 cells [4] = test: MTT cytotoxicity assay in Caco-2 cells
Description: The MTT [3-(4,5-dimethylthiazol-2-yl)-2,5-diphenyltetrazolium bromide] assay was used to determine if compounds of interest were cytotoxic to Caco-2 cells [Mosmann, J. Immunol. […] Cells were cultured and differentiated as detailed above in collagen-coated 96-well plates. Cells were incubated at 37° C., 5% CO2 for at least one hour and up to 72 h in MEM containing the appropriate dilution of compound. Following this incubation period, the media with compound was removed and 110 μL, of MTT reagent (prepared in MEM (final concentration 0.45 mg/mL MTT)) was added. After a 3 h incubation period, the reaction was terminated by the addition of 150 μL, stop buffer (0.01N HCl in 10% SDS). The plates were incubated for 1 h at 37° C. to facilitate solubilization of formazan crystals; color development was read at A570.

[5] = C1-BODIPY-C12 uptake, average of 3 experiments ± SEM, read-out: Caco-2 IC50
[6] = Table 3, structurally related compounds in Caco-2 cells, read-out: IC50
[7] = Table 4, derived from laboratory data, read-out: IC50 (μM ± SE)
[8] = Homo sapiens, Caco-2, Table 4, derived from laboratory data, read-out: IC50 (μM ± SE)
[9] = Homo sapiens, Table 3, structurally related compounds in Caco-2 cells, read-out: IC50

| Compound | IC50 (Caco-2 cells [1]; [6]) [µM] | IC50 (Caco-2 cells [1]; [7]) [µM] | IC50 (Caco-2 cells [1]; [8]) [µM] | % Transport Standard Assay (Caco-2 cells [1]) [%] | glucose (2-NBDG) transport (Caco-2 cells [2]; 20 μM) | oleoyl CoA synthetase activity [3] | cellular toxicity (MTT, mitochondrial function) (Caco-2 cells [4]; 50 μM for 24 h) | also measured |
| --- | --- | --- | --- | --- | --- | --- | --- | --- |
| COc1cc(/C=C2/SC(=S)N(c3cccc(Cl)c3)C2=O)cc(Br)c1O [Compound I-1, (5E)-5-[(3-bromo-4-hydroxy-5-methoxyphenyl)methylene]-3-(3-chloropheny1)-2-thioxothiazolidin-4-one] | 3.99 ± 0.32 | 3.99 ± 0.32 | – | 46 ± 3 | not affected | – | – | IC50 (Caco-2 cells [1]; [5]): 3.99 ± 0.32 µM; IC50 (HepG2 cells): 7.55 ± 1.23 µM; IC50 (3T3-L1 adipocytes): 231 ± 33.5 µM; inhibition of oleoyl CoA synthetase activity ([3]; 50 μM (10 times the IC50)): about 50% |
| COc1cc(/C=C2/SC(=S)N(c3cccc(Cl)c3)C2=O)ccc1O [Compound I-2] | – | – | 121 ± 25.4 | – | – | – | – | IC50 (Caco-2 cells [1]; [9]): 121 ± 25 µM |
| COc1cc(/C=C2/SC(=S)N(c3cccc(F)c3)C2=O)cc(Br)c1O [Compound I-4] | – | – | – | – | – | – | – | IC50 (Caco-2 cells [1]; [9]): 4.7 ± 0.8 µM |
| OCC(CCc1c[nH]c2ccccc12)c1c[nH]c2ccccc12 (stereo not shown) [Compound V-1, 2,4-bis(1H-indol-3-yl)butan-1-ol] | – | – | – | 52 ± 2 | – | not reduced | – | IC50 (Caco-2 cells [1]; Homo sapiens, Caco-2, C1-BODIPY-C12 uptake, average of 3 experiments ± SEM, read-out: Caco-2 IC50): 29.2 ± 3.64 µM; IC50 (HepG2 cells; Homo sapiens, HepG2): 84.1 ± 14.1 µM; IC50 (3T3-L1 adipocytes; Mus musculus, 3T3-L1): 143 ± 22.4 µM; glucose (2-NBDG) transport (Caco-2 cells [2]; 50 μM): reduced 2-NBDG transport slightly; cellular toxicity (MTT, mitochondrial function) (Caco-2 cells [4]; 100 μM for 24 h): not toxic |

More lines, main results first:

| IC50 (Caco-2 cells [1]; [6]) [µM] | IC50 (Caco-2 cells [1]; [7]) [µM] | IC50 (Caco-2 cells [1]; [8]) [µM] | Compound | % Transport Standard Assay (Caco-2 cells [1]) [%] | glucose (2-NBDG) transport (Caco-2 cells [2]; 20 μM) | oleoyl CoA synthetase activity [3] | cellular toxicity (MTT, mitochondrial function) (Caco-2 cells [4]; 50 μM for 24 h) | also measured |
| --- | --- | --- | --- | --- | --- | --- | --- | --- |
| 11.9 ± 1.43 | 11.9 ± 1.43 | – | O=C1Nc2ccccc2C12CN=C(c1ccccc1O)S2 (stereo not shown) [IV-2] | – | – | – | – | – |
| 4.84 ± 0.69 | 4.84 ± 0.69 | – | O=C1Nc2ccc(Br)cc2C12CN=C(c1ccccc1)S2 (stereo not shown) [IV-3] | – | – | – | – | – |
| – | – | 6.66 ± 0.64 | O=C1C=CC=CC1=C1NNC2(S1)C(=O)Nc1ccc(Br)cc12 (stereo not shown) [IV-1, 5′-bromo-5-(6-oxocyclohexa-2,4-dien-1-ylidene)spiro[1,3,4-thiadiazolidine-2,3′-1H-indole]-2′-one] | 27 ± 1 | not affected | not reduced | not toxic | – |
| 6.34 ± 0.93 | 6.34 ± 0.93 | – | O=c1cc(-c2ccc([N+](=O)[O-])cc2)[nH]c2c(-c3ccc(Cl)cc3)c(Cc3ccccc3)nn12 [II-1, 2-benzy1-3-(4-chloropheny1)-5-(4-nitropheny1)-1H-pyrazolo[5,1-b]pyrimidin-7-one] | 54 ± 1 | not affected | not reduced | not toxic | IC50 (Caco-2 cells [1]; [5]): 6.34 ± 0.93 µM; IC50 (HepG2 cells): 10.2 ± 1.26 µM; IC50 (3T3-L1 adipocytes): 901 ± 205 µM |
| – | – | 4.93 ± 0.4 | Oc1c(C2=NCCNC(C(F)(F)F)=C2)ccc2ccccc12 [III-1, 2-[7-(trifluoromethyl)-2,3-dihydro-1H-1,4-diazepin-5-yl]naphthalen-1-ol] | 35 ± 1 | not affected | not reduced | not toxic | IC50 (HepG2 cells; Homo sapiens, HepG2): 6.72 ± 0.81 µM; IC50 (3T3-L1 adipocytes; Mus musculus, 3T3-L1): 52.5 ± 6.7 µM |
